Values after ≈ are worked out from the molar mass of the structure shown.
What was measured:
[1] = tested on: Cryptococcus bacillisporus; experiment: MIC broth microdilution (CLSI); assay type: cell-based; details: Cryptococcus bacillisporus NIH179
Experimental: (§1) Antifungal susceptibility was determined by broth microdilution according to the CLSI guidelines described in M27-Ed4 ([16]).

Candida dubliniensis = experiment: checkerboard drug interaction (FICI, MICc); assay type: cell-based;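 also: simplified diagonal checkerboard screen pairing antifungals with FPPS inhibitors, FICI calculated under the Loewe additivity model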
Experimental: (§2) Drug interactions between antifungals and FPPS inhibitors were investigated using a simplified checkerboard diagonal screening method ([45]). […] FICIs were determined according to the Loewe additivity model ([17]).

Aspergillus terreus = experiment: MIC broth microdilution (CLSI); assay type: cell-based; details: Aspergillus terreus 75-16-089-2500
Experimental: as §1

Aspergillus parafelis [2] = experiment: checkerboard drug interaction (FICI, MICc);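 also: simplified diagonal checkerboard screen pairing antifungals with FPPS inhibitors, FICI calculated under the Loewe additivity model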
Experimental: as §2

Lomentospora prolificans = experiment: checkerboard drug interaction (FICI, MICc);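 also: simplified diagonal checkerboard screen pairing antifungals with FPPS inhibitors, FICI calculated under the Loewe additivity model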
Experimental: as §2

Pichia kudriavzevii = experiment: MIC broth microdilution (CLSI); assay type: cell-based; details: Pichia kudriavzavii ATCC 6258
Experimental: (§3) Antifungal susceptibility was determined by broth microdilution according to the CLSI guidelines described in M27-Ed4 ([16]). […] MFC was determined by back-plating drug-treated cultures from MIC broths onto SDA plates. The MFC was defined as the lowest concentration from which no colonies could be cultured.

Cryptococcus gattii = experiment: checkerboard drug interaction (FICI, MICc); assay type: cell-based;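 also: simplified diagonal checkerboard screen pairing antifungals with FPPS inhibitors, FICI computed under the Loewe additivity model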
Experimental: as §2

Aspergillus lentulus [3] = experiment: checkerboard drug interaction (FICI, MICc); assay type: cell-based;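 also: simplified diagonal checkerboard screen pairing antifungals with FPPS inhibitors, with the interaction index calculated under the Loewe additivity model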
Experimental: as §2

Candida auris [4] = experiment: checkerboard drug interaction (FICI, MICc); assay type: cell-based;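 also: simplified diagonal checkerboard screen pairing antifungals with FPPS inhibitors, with FICI computed under the Loewe additivity model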
Experimental: as §2

Aspergillus lentulus [5] = experiment: MIC broth microdilution (CLSI); assay type: cell-based; details: Aspergillus lentulus DTO 341-G7
Experimental: as §1

Rhizopus oryzae = experiment: checkerboard drug interaction (FICI, MICc); assay type: cell-based;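 also: simplified diagonal checkerboard screen pairing antifungals with FPPS inhibitors, FICI calculated under the Loewe additivity model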
Experimental: as §2

Aspergillus felis = experiment: checkerboard drug interaction (FICI, MICc); assay type: cell-based
Experimental: as §2

Aspergillus parafelis [6] = experiment: MIC broth microdilution (CLSI); assay type: cell-based; details: Aspergillus parafelis DTO 341-F2
Experimental: as §1

[7] = tested on: Cryptococcus deneoformans; experiment: MIC broth microdilution (CLSI); assay type: cell-based; details: Cryptococcus deneoformans JEC21
Experimental: as §1

Microsporum canis = experiment: MIC broth microdilution (CLSI); details: Microsporum canis R-232
Experimental: as §1

Cryptococcus tetragattii = experiment: MIC broth microdilution (CLSI); assay type: cell-based; details: Cryptococcus tetragattii WM779
Experimental: as §1

[8] = tested on: Trichophyton interdigitale; experiment: MIC broth microdilution (CLSI); assay type: cell-based; details: Trichophyton interdigitale R-234
Experimental: as §1

[9] = tested on: Cryptococcus deneoformans; experiment: checkerboard drug interaction (FICI, MICc); assay type: cell-based
Experimental: as §2

Candida auris [10] = experiment: MIC broth microdilution (CLSI); assay type: cell-based; details: Candida auris CDC-0384
Experimental: as §1

Candida parapsilosis = experiment: MIC broth microdilution (CLSI); assay type: cell-based; details: Candida parapsilosis ATCC 22018
Experimental: as §3

Trichophyton soudanense = experiment: checkerboard drug interaction (FICI, MICc); assay type: cell-based;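 also: simplified diagonal checkerboard screen pairing antifungals with FPPS inhibitors, FICI computed under the Loewe additivity model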
Experimental: as §2

Fusarium oxysporum = experiment: checkerboard drug interaction (FICI, MICc); assay type: cell-based
Experimental: as §2

Row | Structure (SMILES) | MIC / MEC [1] [µg/mL] | antifungal MICc (Candida dubliniensis; in combination with 10-ZOL) | antifungal MICc (Candida dubliniensis; in combination with ZOL) | MIC / MEC (Aspergillus terreus) [µg/mL] | antifungal MICc (Aspergillus parafelis [2]; in combination with 10-ZOL) | antifungal MICc (Aspergillus parafelis [2]; in combination with ZOL) | antifungal MICc (Lomentospora prolificans; in combination with 10-ZOL) | antifungal MICc (Lomentospora prolificans; in combination with ZOL) | MIC / MEC (Pichia kudriavzevii) [µg/mL] | antifungal MICc (Cryptococcus gattii; in combination with 10-ZOL) | antifungal MICc (Cryptococcus gattii; in combination with ZOL) | antifungal MICc (Aspergillus lentulus [3]; in combination with 10-ZOL) | antifungal MICc (Aspergillus lentulus [3]; in combination with ZOL) | antifungal MICc (Candida auris [4]; in combination with 10-ZOL) | antifungal MICc (Candida auris [4]; in combination with ZOL) | MIC / MEC (Aspergillus lentulus [5]) [µg/mL] | antifungal MICc (Rhizopus oryzae; in combination with 10-ZOL) | antifungal MICc (Rhizopus oryzae; in combination with ZOL) | antifungal MICc (Aspergillus felis; in combination with 10-ZOL) | antifungal MICc (Aspergillus felis; in combination with ZOL) | other results
1 | Nc1nc(=O)[nH]cc1F [5FC, 5-flucytosine] | 4 (≈ 31 µM) | 0.125 | 0.125 | 64 (≈ 496 µM) | 512 | 128 | 256 | 256 | 16 (≈ 124 µM) | 0.25 | 0.125 | 512 | 256 | 2 | 1 | >64 | 512 | 256 | 256 | 64 | MIC / MEC (Aspergillus parafelis [6]): >64 µg/mL; MIC / MEC [7]: 2 µg/mL (≈ 15.5 µM); MIC / MEC (Microsporum canis): >64 µg/mL; MIC / MEC (Cryptococcus tetragattii): 4 µg/mL (≈ 31 µM); MIC / MEC [8]: >64 µg/mL; antifungal MICc ([9]; in combination with 10-ZOL): 0.25; antifungal MICc ([9]; in combination with ZOL): 0.5; MIC / MEC (Candida auris [10]): 2 µg/mL (≈ 15.5 µM); MIC / MEC (Candida parapsilosis): 0.5 µg/mL (≈ 3.87 µM); antifungal MICc (Trichophyton soudanense; in combination with 10-ZOL): 64; antifungal MICc (Trichophyton soudanense; in combination with ZOL): 64; antifungal MICc (Fusarium oxysporum; in combination with 10-ZOL): 512; antifungal MICc (Fusarium oxysporum; in combination with ZOL): 512
2 | C[C@@H]1[C@H](O)[C@@H](C)/C=C/C=C/C=C/C=C/C=C/C=C/C=C/[C@H](O[C@@H]2O[C@H](C)[C@@H](O)[C@H](N)[C@@H]2O)C[C@@H]2O[C@](O)(C[C@@H](O)C[C@@H](O)[C@H](O)CC[C@@H](O)C[C@@H](O)CC(=O)O[C@H]1C)C[C@H](O)[C@H]2C(=O)O [AMB, amphotericin B] | 0.25 (≈ 0.271 µM) | 0.25 | 0.25 | 1 (≈ 1.08 µM) | 1 | 4 | 4 | 4 | 0.5 (≈ 0.541 µM) | 0.125 | 0.25 | 1 | 2 | 1 | 2 | 4 (≈ 4.33 µM) | 0.13 | 0.13 | 2 | 8 | MIC / MEC (Aspergillus parafelis [6]): 4 µg/mL (≈ 4.33 µM); MIC / MEC [7]: 0.25 µg/mL (≈ 0.271 µM); MIC / MEC (Microsporum canis): 1 µg/mL (≈ 1.08 µM); MIC / MEC (Cryptococcus tetragattii): 0.5 µg/mL (≈ 0.541 µM); MIC / MEC [8]: 0.5 µg/mL (≈ 0.541 µM); antifungal MICc ([9]; in combination with 10-ZOL): 0.125; antifungal MICc ([9]; in combination with ZOL): 0.125; MIC / MEC (Candida auris [10]): 2 µg/mL (≈ 2.16 µM); MIC / MEC (Candida parapsilosis): 0.5 µg/mL (≈ 0.541 µM); antifungal MICc (Trichophyton soudanense; in combination with 10-ZOL): 0.25; antifungal MICc (Trichophyton soudanense; in combination with ZOL): 0.5; antifungal MICc (Fusarium oxysporum; in combination with 10-ZOL): 1; antifungal MICc (Fusarium oxysporum; in combination with ZOL): 0.5
